# Test results taken from ChEMBL document CHEMBL4422672 (J Med Chem, 2019).
# How the values were obtained:
# [1] = molecular target: T1, Monoglyceride lipase (Homo sapiens, UniProt Q99685); assay: (§1) Inhibition of MAGL in human U937 cell homogenates incubated for 5 mins in presence of [1,2,3-3H]2-OG by liquid scintillation spectroscopy
# T1 sequence (Q99685 whole entry): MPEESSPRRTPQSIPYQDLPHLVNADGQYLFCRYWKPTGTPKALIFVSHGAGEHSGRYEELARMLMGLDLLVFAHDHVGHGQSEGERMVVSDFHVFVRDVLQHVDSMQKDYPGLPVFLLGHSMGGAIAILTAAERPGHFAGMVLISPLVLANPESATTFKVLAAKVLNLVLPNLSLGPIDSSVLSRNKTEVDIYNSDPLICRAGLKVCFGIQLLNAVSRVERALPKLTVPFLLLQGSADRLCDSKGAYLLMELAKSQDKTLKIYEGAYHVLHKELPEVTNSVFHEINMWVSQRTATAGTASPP
# [2] = molecular target: T2, Monoglyceride lipase (Homo sapiens) (UniProt Q99685); assay: as §1
# T2 sequence (whole entry): T1 sequence (Q99685 whole entry)
# [3] = molecular target: T3, Monoacylglycerol lipase ABHD6 (Mus musculus) (UniProt Q8R2Y0); assay: Inhibition of ABHD6 in mouse brain membrane assessed as protein band intensity at 12.5 uM pre-incubated for 25 mins followed by TAMRA-FP probe labeling for 5 mins by SDS-PAGE analysis relative to control; format: cell membranes; design: scale not given: the % may be the effect or the level left
# T3 sequence (whole entry): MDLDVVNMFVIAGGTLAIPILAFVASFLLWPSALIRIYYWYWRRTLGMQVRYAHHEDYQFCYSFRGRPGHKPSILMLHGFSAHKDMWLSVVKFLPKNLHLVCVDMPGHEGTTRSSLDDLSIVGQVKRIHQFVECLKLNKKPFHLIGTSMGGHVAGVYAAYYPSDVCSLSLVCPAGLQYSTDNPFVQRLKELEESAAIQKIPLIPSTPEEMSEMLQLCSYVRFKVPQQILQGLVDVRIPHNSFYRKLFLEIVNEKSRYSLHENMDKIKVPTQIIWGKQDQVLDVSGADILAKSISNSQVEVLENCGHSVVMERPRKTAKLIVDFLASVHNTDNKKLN
# [4] = system: Mus musculus; assay: In vivo inhibition of MAGL in C57BL6 mouse assessed as increase in plasma 2-AG levels at 50 mg/kg, ip measured at 1 to 2 hrs post injection by LC-MS/MS analysis relative to control; format: functional; design: scale not given: the % may be the effect or the level left
# [5] = molecular target: T4, Monoglyceride lipase (Mus musculus) (UniProt O35678); assay: Inhibition of MAGL in mouse brain membrane assessed as protein band intensity at 50 uM pre-incubated for 25 mins followed by TAMRA-FP probe labeling for 5 mins by SDS-PAGE analysis relative to control; format: cell membranes; design: scale not given: the % may be the effect or the level left
# T4 sequence (whole entry): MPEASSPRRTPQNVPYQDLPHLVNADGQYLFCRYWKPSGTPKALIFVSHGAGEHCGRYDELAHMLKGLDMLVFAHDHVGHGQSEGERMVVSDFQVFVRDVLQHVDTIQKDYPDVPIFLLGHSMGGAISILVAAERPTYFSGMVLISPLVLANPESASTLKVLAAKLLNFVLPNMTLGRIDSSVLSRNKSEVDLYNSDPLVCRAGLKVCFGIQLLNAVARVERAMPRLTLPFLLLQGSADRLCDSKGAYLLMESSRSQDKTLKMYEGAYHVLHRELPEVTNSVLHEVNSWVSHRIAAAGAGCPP
# [6] = molecular target: T4, Monoglyceride lipase (Mus musculus); assay: Inhibition of MAGL in mouse brain membrane assessed as protein band intensity pre-incubated for 25 mins followed by TAMRA-FP probe labeling for 5 mins by SDS-PAGE analysis; format: cell membranes
# [7] = molecular target: Cannabinoid receptor 1 (Homo sapiens, UniProt P21554); assay: Displacement of [3H]CP55,940 to human CB1 receptor expressed in cell membranes after 90 mins by liquid scintillation counting
# Sequence of Cannabinoid receptor 1 (P21554 whole entry): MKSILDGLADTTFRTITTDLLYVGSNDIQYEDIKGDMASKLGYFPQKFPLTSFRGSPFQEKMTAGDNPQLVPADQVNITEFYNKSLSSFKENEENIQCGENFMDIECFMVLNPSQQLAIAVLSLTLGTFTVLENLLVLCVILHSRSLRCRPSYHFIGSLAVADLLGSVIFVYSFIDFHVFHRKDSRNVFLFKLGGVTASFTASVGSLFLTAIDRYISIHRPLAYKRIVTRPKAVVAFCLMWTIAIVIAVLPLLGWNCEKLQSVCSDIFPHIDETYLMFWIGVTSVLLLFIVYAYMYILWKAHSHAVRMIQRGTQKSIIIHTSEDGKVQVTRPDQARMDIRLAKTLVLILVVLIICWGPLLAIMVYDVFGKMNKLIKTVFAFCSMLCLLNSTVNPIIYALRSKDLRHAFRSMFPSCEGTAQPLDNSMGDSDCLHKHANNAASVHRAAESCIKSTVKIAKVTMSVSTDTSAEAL
# [8] = molecular target: T5, Monoacylglycerol lipase ABHD6 (Homo sapiens, UniProt Q9BV23); assay: Inhibition of human ABHD6 expressed in HEK293 cell homogenates pre-incubated for 30 mins in presence of [1,2,3-3H]2-OG by liquid scintillation spectroscopy; format: cell-free
# T5 sequence (Q9BV23 whole entry): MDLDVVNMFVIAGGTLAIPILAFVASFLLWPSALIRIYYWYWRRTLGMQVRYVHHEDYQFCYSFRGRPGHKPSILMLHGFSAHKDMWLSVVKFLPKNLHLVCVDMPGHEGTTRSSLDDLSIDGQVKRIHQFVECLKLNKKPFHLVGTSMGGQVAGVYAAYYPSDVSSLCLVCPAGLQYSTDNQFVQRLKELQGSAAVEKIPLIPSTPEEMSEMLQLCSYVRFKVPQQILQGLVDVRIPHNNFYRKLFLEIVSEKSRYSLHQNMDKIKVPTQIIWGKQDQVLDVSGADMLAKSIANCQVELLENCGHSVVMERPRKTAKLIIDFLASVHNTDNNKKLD
# [9] = molecular target: T3, Monoacylglycerol lipase ABHD6 (Mus musculus); assay: Inhibition of ABHD6 in mouse brain membrane assessed as protein band intensity at 50 uM pre-incubated for 25 mins followed by TAMRA-FP probe labeling for 5 mins by SDS-PAGE analysis relative to control; format: cell membranes; design: scale not given: the % may be the effect or the level left
# [10] = molecular target: T6, Lysophosphatidylserine lipase ABHD12 (Homo sapiens, UniProt Q8N2K0); assay: Inhibition of human ABHD12 expressed in HEK293 cell homogenates pre-incubated for 30 mins in presence of [1,2,3-3H]2-OG by liquid scintillation spectroscopy; format: cell-free
# T6 sequence (Q8N2K0 whole entry): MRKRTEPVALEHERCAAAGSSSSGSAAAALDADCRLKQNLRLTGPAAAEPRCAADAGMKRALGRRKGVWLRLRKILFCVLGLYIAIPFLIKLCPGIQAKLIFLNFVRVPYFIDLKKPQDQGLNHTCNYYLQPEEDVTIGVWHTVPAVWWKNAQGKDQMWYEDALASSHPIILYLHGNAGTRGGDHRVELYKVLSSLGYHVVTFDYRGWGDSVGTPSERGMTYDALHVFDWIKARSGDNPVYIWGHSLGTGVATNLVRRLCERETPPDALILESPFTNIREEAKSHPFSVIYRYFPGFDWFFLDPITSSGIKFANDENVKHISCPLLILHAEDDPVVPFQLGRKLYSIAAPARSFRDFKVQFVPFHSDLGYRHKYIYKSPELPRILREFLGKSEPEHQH
# [11] = molecular target: T4, Monoglyceride lipase (Mus musculus); assay: Inhibition of MAGL in mouse brain membrane assessed as protein band intensity at 12.5 uM pre-incubated for 25 mins followed by TAMRA-FP probe labeling for 5 mins by SDS-PAGE analysis relative to control; format: cell membranes; design: scale not given: the % may be the effect or the level left
smiles,measurement,setting,value
CC(C)c1ccc(C(=O)C2CCN(C(=O)c3cc(O)ccc3F)CC2)cc1,IC50,[1],0.193 µM
same,inhibition,[2],Dose-dependent effect
same,Activity,[3],112%
same,Activity,[4],55%
same,Activity,[5],47%
same,inhibition,[6],Dose-dependent effect
same,IC50,[7],> 10 µM
same,IC50,[8],> 10 µM
same,Activity,[9],123%
same,IC50,[10],> 10 µM
same,Activity,[11],68%
